Results from patent US20060052346A1, “Nucleoside phosphonate derivatives useful in the treatment of HIV infections” (priority 2004, published 2006).
Like-named read-outs stand apart in the source and are kept apart here.

System: HIV-1 (NL4-3)
Assay: Plaque reduction assay (drug susceptibility) in HT4-6C cells infected with HIV-1 NL4-3
Assay type: cell-based
Conditions: for IC50: Human immunodeficiency virus 1, NL43, 72 h
Source text: Measurement of Inhibition Effect Against Human Immunodeficiency Virus (HIV)
The compounds of formula 1 protect cells from the cytopathic effects of HIV infection.
Cells. The T-lymphoblastoid cell line CEM was used in this study to propagate HIV. The cells were maintained in RPMI 1640 growth medium supplemented with 10% fetal bovine serum plus antibiotics. The CD4-expressing cell line used for HIV plaque assays, HT4-6C, was made by transforming HeLa cells with the human CD4 gene as described in Chesebro and Wehrly, J. Virology, 62(10), 3779-3788 (1988). These cells were grown in Dulbecco modified eagle medium (DMEM) containing 10% fetal bovine serum plus antibiotics.
Virus propagation. The laboratory strain of HIV-1 (NL4-3) was grown in CEM cells. Virus stocks were prepared from cleared lysates of concentrated infected cells. At peak cytopathic effect (generally 5 days post-infection) culture supernatants were harvested and stored at −80° C. Viral infectivity titers were determined in threefold endpoint dilution assays conducted in CEM cells (six wells per dilution). The 50% tissue culture infective dose (TCID50) was calculated using the Reed and Muench equation.
Plaque titration using HT4-6C. Cells are seeded into 24-well multiwells at 5×10^4 cells per well and incubated overnight at 37° C. in growth medium (DMEM containing 10% fetal bovine serum plus antibiotics). Monolayers were infected with 10-fold dilutions of cell-free NL4-3 virus in 0.2 ml of DMEM and were incubated for 1 h at 37° C. to allow virus adsorption. Following this, 0.8 ml of DMEM containing 5% fetal bovine serum plus antibiotics was added to each well, and the cultures were incubated at 37° C. for 2 to 3 days. The monolayers were fixed with a 10% formaldehyde solution in phosphate-buffered saline and stained with 0.25% crystal violet in order to visualize virus plaques. Individual foci of multinucleated giant cells (plaques) are obvious when this staining procedure was used. Virus titers were evaluated from plaque numbers and were expressed as PFU per milliliter.
Drug susceptibility assays. Plaque reduction assays were performed by infecting monolayers of HT4-6C cells with 100 to 300 PFU of virus per well in 24-well microdilution plates as described above. Half-log concentrations of inhibitor were added to the culture medium (DMEM containing 5% fetal bovine serum plus antibiotics), and cultures were incubated for 3 days at 37° C. prior to fixation and staining as described above. ID50s were derived from plots of percentage of plaque reduction versus inhibitor concentration. See Larder et al., Antimicrob Agents Chemother, 34(3), 436-41 (March 1990).

[1] = plaque reduction, HT4-6C cell monolayers, 100 to 300 PFU of virus per well, 3 days at 37° C., read-out: ID50 (the source's name)
[2] = plaque reduction, HT4-6C cell monolayers, 100 to 300 PFU of virus per well, 3 days at 37° C.

Row | SMILES | IC50 [1] [µM] | ID25 [2] [µM] | IC50 (read-out: ID50 (μM)) [µM]
1 | Nc1nc(O)c2ncn(CC3(OCP(=O)(O)O)CC3)c2n1 [Compound 5, ({1-[(2-amino-6-hydroxy-9H-purin-9-yl)methyl]cyclopropyl}oxy)methylphosphonic acid] | ~100 | <10 | 
2 | CC(C)(C)C(=O)OCOP(=O)(COC1(Cn2cnc3c(O)nc(N)nc32)CC1)OCOC(=O)C(C)(C)C [Compound 6, 3-[({1-[(2-amino-6-hydroxy-9H-purin-9-yl)methyl]cyclopropyl}oxy)methyl]-8,8-dimethyl-3,7-dioxo-2,4,6-trioxa-3λ^5-phosphanon-1-yl pivalate] | < 10 | <0.1 | 
3 | Nc1ncc2ncn(CC3(OCP(=O)(O)O)CC3)c2n1 [Compound 9, ({1-[(2-amino-9H-purin-9-yl)methyl]cyclopropyl}oxy)methylphosphonic acid] | > 100 | <10 | 
4 | CC(C)(C)C(=O)OCOP(=O)(COC1(Cn2cnc3cnc(N)nc32)CC1)OCOC(=O)C(C)(C)C [Compound 10, 3-[({1-[(2-amino-9H-purin-9-yl)methyl]cyclopropyl}oxy)methyl]-8,8-dimethyl-3,7-dioxo-2,4,6-trioxa-3λ^5-phosphanon-1-yl pivalate] |  | <0.1 | < 10

Second part, led by results:

Row | IC50 [1] [µM] | SMILES | ID25 [2] [µM] | IC50 (read-out: ID50 (μM)) [µM]
5 | > 100 | CC1CC1(Cn1cnc2cnc(N)nc21)OCP(=O)(O)O (centres unmarked) [Compound 98, ({1-[(2-amino-9H-purin-9-yl)methyl]-2-methylcyclopropyl}oxy)methylphosphonic acid] | <200 | 
6 | < 100 | CC1CC1(Cn1cnc2cnc(N)nc21)OCP(=O)(OCOC(=O)C(C)(C)C)OCOC(=O)C(C)(C)C (centres unmarked) [Compound 106, 3-[({1-[(2-amino-9H-purin-9-yl)methyl]-2-methylcyclopropyl}oxy)methyl]-8,8-dimethyl-3,7-dioxo-2,4,6-trioxa-3λ^5-phosphanon-1-yl pivalate] | <1.0 | 
7 | > 100 | CC1CC1(Cn1cnc2c(N)ncnc21)OCP(=O)(O)O (centres unmarked) [Compound 103, ({1-[(6-amino-9H-purin-9-yl)methyl]-2-methylcyclopropyl}oxy)methylphosphonic acid] | <10 | 
